Data from ChEMBL document CHEMBL1201862, “PubChem BioAssay data set” (2004).
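The compound was tested at five concentrations on cells cultured in 96-well plates, with a 48-hour exposure period. At the GI50, growth is halved.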 Activity calls are given as the source filed them. Rule as the data show it: active = GI50 up to about 1.1 µM and inactive = higher.

How the values were obtained:
Test in all cases: growth of human tumour cells (NCI), 48 h
[1] = system: 786-0
[2] = system: A498
[3] = system: COLO 205
[4] = system: DU-145
[5] = system: IGROV-1
[6] = system: LOX IMVI
[7] = system: MDA-N
[8] = system: Malme-3M
[9] = system: OVCAR-4
[10] = system: RXF 393
[11] = system: SF-268
[12] = system: SK-MEL-2
[13] = system: SK-MEL-5
[14] = system: SK-OV-3
[15] = system: SN12C
[16] = system: SNB-75
[17] = system: SW-620
[18] = system: T47D
[19] = system: U-251
[20] = system: UACC-62

SMILES | GI50 [1] | GI50 [2] | GI50 [3] | GI50 [4] | GI50 [5] | GI50 [6] | GI50 [7] | GI50 [8] | GI50 [9] | GI50 [10] | GI50 [11] | GI50 [12] | GI50 [13] | GI50 [14] | GI50 [15] | GI50 [16] | GI50 [17] | GI50 [18] | GI50 [19] | GI50 [20]
C[N+](C)(C)c1ccc(C(N)C(=O)O)cc1 (centres undefined) | > 100 µM (inactive) | > 100 µM (inactive) | > 100 µM (inactive) | > 100 µM (inactive) | > 100 µM (inactive) | > 100 µM (inactive) | > 100 µM (inactive) | > 100 µM (inactive) | > 100 µM (inactive) | > 100 µM (inactive) | > 100 µM (inactive) | > 100 µM (inactive) | > 100 µM (inactive) | > 100 µM (inactive) | > 100 µM (inactive) | > 100 µM (inactive) | > 100 µM (inactive) | > 100 µM (inactive) | > 100 µM (inactive) | > 100 µM (inactive)
CC(=O)Oc1c(C)c2c(c3ncccc13)OC(C)C2 (centres undefined) | 12.8 µM (inactive) | 20 µM (inactive) | 19.4 µM (inactive) | 16.2 µM (inactive) | 6.98 µM (inactive) |  | 11 µM (inactive) | 16.3 µM (inactive) | 16.3 µM (inactive) | 14.8 µM (inactive) | 14.4 µM (inactive) | 18.1 µM (inactive) | 14.5 µM (inactive) | 21 µM (inactive) | 16.2 µM (inactive) | 14.8 µM (inactive) | 14.2 µM (inactive) | 9.14 µM (inactive) | 15.5 µM (inactive) | 12.2 µM (inactive)
CC1Oc2cc3c(-c4c(O)cc(O)c5c(O)c6c(cc45)OC(C)C(C)C6=O)c(O)cc(O)c3c(O)c2C(=O)C1C (centres undefined) | 0.102 µM (active) | 0.155 µM (active) | 0.17 µM (active) | 0.365 µM (active) | 0.0574 µM (active) |  | 0.359 µM (active) | 0.265 µM (active) | 0.0869 µM (active) | 0.0173 µM (active) | 0.254 µM (active) | 0.101 µM (active) | 0.158 µM (active) | 0.363 µM (active) | 0.11 µM (active) | 0.0675 µM (active) | 0.136 µM (active) | 0.259 µM (active) | 0.038 µM (active) | 0.372 µM (active)
CC(=O)NCc1nc(C#N)c(N)o1 | > 100 µM (inactive) | > 100 µM (inactive) | > 100 µM (inactive) | > 100 µM (inactive) | 8.95 µM (inactive) | > 100 µM (inactive) | > 100 µM (inactive) | > 100 µM (inactive) | > 100 µM (inactive) | > 100 µM (inactive) | > 100 µM (inactive) | > 100 µM (inactive) |  | > 100 µM (inactive) | > 100 µM (inactive) | > 100 µM (inactive) | > 100 µM (inactive) | > 100 µM (inactive) | > 100 µM (inactive) | > 100 µM (inactive)
Cc1cc(O)nc(NN2C(Cl)C(=O)C2c2ccccc2O)n1 (centres undefined) | 2.53 µM (inactive) | 12.2 µM (inactive) | 12.1 µM (inactive) | 4.06 µM (inactive) | 3.75 µM (inactive) | 1.02 µM (active) | 4.36 µM (inactive) |  | 8.49 µM (inactive) | 3.03 µM (inactive) | 1.53 µM (inactive) | 1.61 µM (inactive) | 2.66 µM (inactive) | 1.44 µM (inactive) | 2.7 µM (inactive) | 2.54 µM (inactive) | 3.27 µM (inactive) | 3.99 µM (inactive) | 2.76 µM (inactive) | 1.6 µM (inactive)
NCCP(=O)(O)O | > 100 µM (inactive) | > 100 µM (inactive) | > 100 µM (inactive) | > 100 µM (inactive) | > 100 µM (inactive) | > 100 µM (inactive) | > 100 µM (inactive) | > 100 µM (inactive) | > 100 µM (inactive) | > 100 µM (inactive) | > 100 µM (inactive) | > 100 µM (inactive) | > 100 µM (inactive) | > 100 µM (inactive) | > 100 µM (inactive) | > 100 µM (inactive) | > 100 µM (inactive) | > 100 µM (inactive) | > 100 µM (inactive) | > 100 µM (inactive)
Nc1nc(N)c(NC(=O)CCCO)c(=O)[nH]1 | > 100 µM (inactive) | > 100 µM (inactive) | > 100 µM (inactive) | > 100 µM (inactive) | > 100 µM (inactive) | > 100 µM (inactive) | > 100 µM (inactive) | > 100 µM (inactive) | > 100 µM (inactive) | > 100 µM (inactive) | > 100 µM (inactive) | > 100 µM (inactive) | > 100 µM (inactive) | > 100 µM (inactive) | > 100 µM (inactive) | > 100 µM (inactive) | > 100 µM (inactive) | > 100 µM (inactive) | > 100 µM (inactive) | > 100 µM (inactive)
C=CC[C@H](N=C(SC)SC)C(=O)N1C(=O)N(C)[C@@H](C)[C@H]1c1ccccc1 | 46.6 µM (inactive) | 56.8 µM (inactive) | 28 µM (inactive) | 37.5 µM (inactive) |  | 72.8 µM (inactive) | 33.8 µM (inactive) | 51.6 µM (inactive) | 29.9 µM (inactive) | 33.8 µM (inactive) | 26.5 µM (inactive) | 30 µM (inactive) | 20 µM (inactive) | 75 µM (inactive) | 40.7 µM (inactive) | 36.4 µM (inactive) | 30.1 µM (inactive) | 40.5 µM (inactive) | 40.8 µM (inactive) | 35.1 µM (inactive)
CC1C2(C)OC(=N)C(C#N)(C(c3ccccc3)O2)C1(C#N)C#N (centres undefined) | 21.2 µM (inactive) | 42.1 µM (inactive) | 16.4 µM (inactive) | 31.3 µM (inactive) | 33.8 µM (inactive) | 17.2 µM (inactive) | 18.2 µM (inactive) | 28.3 µM (inactive) |  | 30.3 µM (inactive) | 25.5 µM (inactive) | 16.9 µM (inactive) | 16.7 µM (inactive) | > 100 µM (inactive) | 16.6 µM (inactive) | > 100 µM (inactive) | > 10 µM (inactive) | 20 µM (inactive) | 18.7 µM (inactive) | 24.4 µM (inactive)
CCCC1C(=O)Nc2cccc3ncn(c23)C1=O (centres undefined) | > 100 µM (inactive) | > 100 µM (inactive) | > 100 µM (inactive) | > 100 µM (inactive) | > 100 µM (inactive) |  | > 100 µM (inactive) | > 100 µM (inactive) | > 100 µM (inactive) | > 100 µM (inactive) | > 100 µM (inactive) | > 100 µM (inactive) | > 100 µM (inactive) | > 100 µM (inactive) | > 100 µM (inactive) | 28.8 µM (inactive) | > 100 µM (inactive) | > 100 µM (inactive) | > 100 µM (inactive) | > 100 µM (inactive)
CN1CCN(c2nc3ccccc3nc2C(=O)c2ccc(Cl)cc2)CC1 | 33.1 µM (inactive) | 41.7 µM (inactive) | 35.8 µM (inactive) | > 100 µM (inactive) | 83.6 µM (inactive) | 40.6 µM (inactive) | 36.9 µM (inactive) | 16.7 µM (inactive) | 58.6 µM (inactive) | 24.5 µM (inactive) | 46.9 µM (inactive) | 58.5 µM (inactive) | 14.5 µM (inactive) | > 100 µM (inactive) |  | > 100 µM (inactive) | 61 µM (inactive) | 45.6 µM (inactive) | 57.1 µM (inactive) | 28.5 µM (inactive)
COCc1nc2c(OC)c(-c3nc4ccc(N5CCN(C)CC5)nc4[nH]3)cc(OC)c2[nH]1 | 40.7 µM (inactive) | > 100 µM (inactive) | 37.5 µM (inactive) | 29.2 µM (inactive) | > 100 µM (inactive) | 30.8 µM (inactive) | 73.3 µM (inactive) | 20.7 µM (inactive) | 46.1 µM (inactive) | 27.2 µM (inactive) | 77.4 µM (inactive) |  | 18.6 µM (inactive) | 45.3 µM (inactive) | 51.5 µM (inactive) | 18 µM (inactive) | 39.1 µM (inactive) | 53 µM (inactive) | 39.7 µM (inactive) | > 100 µM (inactive)
COc1ccc(/N=N/c2ccc3oc(=O)c(C(=O)Nc4ccccc4C)cc3c2)cc1 | > 10 µM (inactive) | > 10 µM (inactive) | > 10 µM (inactive) | > 10 µM (inactive) | > 10 µM (inactive) | > 10 µM (inactive) | > 10 µM (inactive) | > 10 µM (inactive) | > 10 µM (inactive) | > 10 µM (inactive) | > 10 µM (inactive) | > 10 µM (inactive) | > 10 µM (inactive) | > 10 µM (inactive) | > 10 µM (inactive) | 4.69 µM (inactive) | > 10 µM (inactive) | > 10 µM (inactive) | > 10 µM (inactive) | 
CC(C)OC1OC(CO)C(O)CC1n1cc(F)c(=O)[nH]c1=O (centres undefined) | > 100 µM (inactive) | > 100 µM (inactive) | > 100 µM (inactive) | > 100 µM (inactive) | > 100 µM (inactive) | 94 µM (inactive) | > 100 µM (inactive) | 86.1 µM (inactive) | > 100 µM (inactive) | 47.5 µM (inactive) | 59.3 µM (inactive) | > 100 µM (inactive) | > 100 µM (inactive) |  | > 100 µM (inactive) | > 100 µM (inactive) | 30.9 µM (inactive) | 48.4 µM (inactive) | 66.8 µM (inactive) | > 100 µM (inactive)
